Test results: paper PMC5685639, “A trehalose biosynthetic enzyme doubles as an osmotic stress sensor to regulate bacterial morphogenesis” (PLoS Genetics, 2017)

Target: T1, OtsA (Arthrobacter alpinus, UniProt C7EZF1)
T1 construct: recombinant, expressed in and purified from E. coli; self-assembles into large networks
T1 sequence (C7EZF1 1-495): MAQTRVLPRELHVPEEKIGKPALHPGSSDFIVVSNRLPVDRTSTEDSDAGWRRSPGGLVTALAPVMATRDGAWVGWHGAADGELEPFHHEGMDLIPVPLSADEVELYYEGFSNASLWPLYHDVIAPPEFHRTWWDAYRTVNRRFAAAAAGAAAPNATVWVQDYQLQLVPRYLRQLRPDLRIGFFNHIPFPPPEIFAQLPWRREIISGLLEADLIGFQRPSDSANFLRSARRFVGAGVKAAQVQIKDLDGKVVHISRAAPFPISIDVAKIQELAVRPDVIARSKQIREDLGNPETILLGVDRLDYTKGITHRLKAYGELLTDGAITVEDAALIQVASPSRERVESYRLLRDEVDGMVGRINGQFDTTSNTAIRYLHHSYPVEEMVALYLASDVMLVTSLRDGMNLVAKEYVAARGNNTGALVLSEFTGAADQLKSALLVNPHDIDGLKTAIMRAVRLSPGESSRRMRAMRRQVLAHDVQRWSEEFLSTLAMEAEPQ
Assay: dynamic light scattering, self-assembly promoted by T6P
Assay type: binding
Conditions: 10 uM OtsA, 20 mM Tris HCl pH 7.5, 1 mM MgCl2, 1 M urea, 20 °C; up to 500 uM T6P; T6P is also the enzyme product

SMILES: O=P(O)(O)OC[C@H]1O[C@H](O[C@H]2O[C@H](CO)[C@@H](O)[C@H](O)[C@H]2O)[C@H](O)[C@@H](O)[C@@H]1O [T6P, trehalose-6-phosphate]
- dynamic light scattering, self-assembly promoted by T6P: increasing concentrations of this metabolite had a dramatic effect on promoting the rate of OtsA polymerization
